Patent publication USRE40387E1, “Pharmaceutical compositions, dosage forms and methods for oral administration of epothilones” (Bristol-Myers Squibb Company, priority 2001, dated 2008)

Columns and labels:
CYP1A2 = molecular target: T1, CYP1A2 (Homo sapiens, UniProt P05177); assay: Inhibition of recombinant human CYP1A2 (deethylation of 3-cyano-7-ethoxycoumarin); type: in vitro ADME; conditions: recombinant human CYP isoform
T1 sequence (P05177 1-516): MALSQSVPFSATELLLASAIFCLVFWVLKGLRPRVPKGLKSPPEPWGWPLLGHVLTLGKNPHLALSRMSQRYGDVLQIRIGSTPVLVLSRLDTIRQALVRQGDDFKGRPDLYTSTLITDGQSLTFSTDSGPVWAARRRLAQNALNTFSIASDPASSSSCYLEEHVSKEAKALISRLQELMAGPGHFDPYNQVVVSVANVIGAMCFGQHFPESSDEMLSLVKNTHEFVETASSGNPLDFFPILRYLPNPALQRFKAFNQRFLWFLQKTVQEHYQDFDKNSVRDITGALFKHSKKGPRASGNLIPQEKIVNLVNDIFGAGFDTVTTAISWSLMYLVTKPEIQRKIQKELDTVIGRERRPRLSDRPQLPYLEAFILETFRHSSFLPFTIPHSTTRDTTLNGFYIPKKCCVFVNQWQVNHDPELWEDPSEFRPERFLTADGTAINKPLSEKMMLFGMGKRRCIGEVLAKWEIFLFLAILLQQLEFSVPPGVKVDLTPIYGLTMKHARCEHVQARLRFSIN
Protocol: (§1) The ability of Compound (A) to inhibit the major human cytochrome P450s (CYPs) responsible for the metabolism of drugs was evaluated in vitro using recombinant human CYP isoforms. IC50 values for inhibition of deethylation of 3-cyano-7-ethoxycoumarin (CYP1A2, CYP2C9, CYP2C19, and CYP2D6) and for inhibition of dealkylation of benzoyl-resorufin (CYP3A4) were determined.

rat liver microsomes = assay: Oxidative metabolism in rat liver microsomes; type: in vitro ADME; conditions: 40 :M, NADPH
Protocol: (§2) Upon incubation of Compound (A) (40 :M) with mouse, rat, dog, and human liver microsomes fortified with nicotinamide adenine dinucleotide phosphate (NADPH), the rate of oxidative metabolism of Compound (A) was 2.1, 0.7, 1.2 and 1.3 nmol/min/mg protein, respectively. Moreover, the metabolite distribution was similar among all species (metabolite masses included several […] and M−2 compounds). Qualitatively, there appeared to be similar production of metabolites of Compound (A) after incubation with rat or human hepatocytes compared to microsomal incubations. Products similar to those arising from the chemical degradation of Compound (A) appeared to be the major products in the hepatocyte incubations.

mouse liver microsomes = assay: Oxidative metabolism in mouse liver microsomes; type: in vitro ADME; conditions: 40 :M, NADPH
Protocol: as §2

CYP3A4 = molecular target: T2, CYP3A4 (Homo sapiens, UniProt P08684); assay: Biotransformation of Compound (A) in human liver microsomes with specific CYP inhibitors; type: in vitro ADME
T2 construct: from tissue; host or cells: human liver microsomes
T2 sequence (P08684 whole entry): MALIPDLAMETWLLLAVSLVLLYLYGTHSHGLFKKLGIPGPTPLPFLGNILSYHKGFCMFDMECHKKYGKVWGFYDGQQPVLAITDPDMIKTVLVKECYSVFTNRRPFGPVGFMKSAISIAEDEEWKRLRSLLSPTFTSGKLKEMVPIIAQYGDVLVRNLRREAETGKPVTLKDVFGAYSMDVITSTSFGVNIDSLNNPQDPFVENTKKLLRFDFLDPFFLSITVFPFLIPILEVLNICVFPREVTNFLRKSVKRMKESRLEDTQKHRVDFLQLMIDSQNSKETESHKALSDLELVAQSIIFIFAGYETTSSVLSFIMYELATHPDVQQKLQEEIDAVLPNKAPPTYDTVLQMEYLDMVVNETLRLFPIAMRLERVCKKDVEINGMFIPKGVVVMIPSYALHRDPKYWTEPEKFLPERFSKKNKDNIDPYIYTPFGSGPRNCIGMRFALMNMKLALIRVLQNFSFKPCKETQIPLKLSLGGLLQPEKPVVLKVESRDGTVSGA

human liver microsomes = assay: Oxidative metabolism in human liver microsomes; type: in vitro ADME; conditions: 40 :M, NADPH
Protocol: as §2

[1] = Single dose oral toxicity study in dogs; type: in vivo; conditions: oral solution 0.4 mL/kg
Protocol: The mean (SD) [n=3] […] Although the oral formulation for both studies was identical, the total volume of the oral solution administered in the current study was about 1.3 mL/kg while that in the toxicology study was 0.4 mL/kg. […] Compound (A) is an acid labile drug, thus, the higher exposure after oral solution in the current study compared to the toxicology study is likely related to better protection from gastric acid degradation.

dog liver microsomes = assay: Oxidative metabolism in dog liver microsomes; type: in vitro ADME; conditions: 40 :M, NADPH
Protocol: as §2

CYP2C9 = CYP2C9 (Homo sapiens, UniProt P11712); assay: Inhibition of recombinant human CYP2C9 (deethylation of 3-cyano-7-ethoxycoumarin); type: in vitro ADME; conditions: recombinant human CYP isoform
CYP2C9, sequence (P11712 whole entry, canonical isoform): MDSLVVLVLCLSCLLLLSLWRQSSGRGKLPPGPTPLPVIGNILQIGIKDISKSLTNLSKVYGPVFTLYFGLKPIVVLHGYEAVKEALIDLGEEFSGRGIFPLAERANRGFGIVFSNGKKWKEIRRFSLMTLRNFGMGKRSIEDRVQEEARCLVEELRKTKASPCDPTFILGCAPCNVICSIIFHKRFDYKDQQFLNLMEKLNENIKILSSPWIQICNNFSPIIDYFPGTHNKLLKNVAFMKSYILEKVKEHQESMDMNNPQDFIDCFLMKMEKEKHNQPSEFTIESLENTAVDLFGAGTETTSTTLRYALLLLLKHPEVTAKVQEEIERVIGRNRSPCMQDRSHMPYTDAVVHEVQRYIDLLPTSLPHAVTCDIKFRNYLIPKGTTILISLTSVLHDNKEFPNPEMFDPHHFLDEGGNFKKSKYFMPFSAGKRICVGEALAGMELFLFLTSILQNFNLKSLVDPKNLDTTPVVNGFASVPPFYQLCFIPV
Protocol: as §1

[2] = Stability of liquid formulation in 80:20 propylene glycol:ethanol; type: physicochemical; conditions: for can be stored for up to: 2.5 mg/mL to 12.5 mg/mL in 80:20 propylene glycol:ethanol
Protocol: The stability of compound (A) in 80:20 propylene glycol:ethanol was evaluated by reconstituting 25 mg Compound (A) with 80:20 propylene glycol:ethanol to provide a liquid oral dosage form at concentrations of 2.5 mg/mL to 12.5 mg/mL. The resulting liquid oral dosage form was then stored up to 20 hours at ambient temperature (20° C. to 25° C.) and room light and at refrigerated temperature (2° C. to 8° C.).
The change in total impurities was attributed to an increase of an oxazine impurity/degradant whose structure is depicted below: [drawing 10] Samples were analyzed using HPLC with a 75 mm×4.6 mm i.d., 3.5 :m particle sizeWaters Symmetry Shield RP8 column and with UV detection at 240 nm. 10 :L injection volumes were used, the column was maintained at ambient temperature and the flow rate was 1 mL/min. Analysis times were 1 hour and samples were eluted using gradient elution with a mobile phase of water (0.05% acetic acid) (mobil phase A) and a mobile phase of acetonitrile (0.05% acetic acid). The elution profile is described in the table below.

[3] = Pharmacokinetics in rats (intraarterial, oral, intraduodenal); type: in vivo, male Sprague Dawley rats
Protocol: Plasma samples from pharmacokinetic/pharmacodynamic studies were analyzed for the concentration of Compound (A) using an LC/MS/MS (liquid chromatography/mass spectrometry/mass spectrometry) assay with a standard curve range of 5 to 20,000 ng/mL (10 to 40,000 nM) for studies in mice and 2 to 1000 ng/mL (4 to 2000 nM) for studies in rats and dogs. In pharmacodynamic studies, concentrations of Compound (A) were determined using the LC/MS/MS assay with a standard curve range of 5 to 20,000 ng/mL (10 to 40,000 nM) in mouse plasma. The LC/MS/MS assay was also used to determine the concentrations of Compound (B), a degradation product of Compound (A) formed in the stock/dosing solution or in vivo, in rat and dog plasma. The structure of Compound (B) is: [drawing 9]
Compound (A) was given as a single intraarterial (2 mg/kg; 10 min infusion), oral (8 mg/kg), and intraduodenal (8 mg/kg) dose to fasted male Sprague Dawley rats (n×3-6 per group). All dosing solutions were prepared in 20% ethanol. Plasma samples were obtained over a period of 24 h after dosing and the concentration of Compound (A) was determined using the LC/MS/MS assay.

C/C(=C\c1csc(C)n1)[C@@H]1C[C@@H]2O[C@]2(C)CCC[C@H](C)[C@H](O)[C@@H](C)C(=O)C(C)(C)[C@@H](O)CC(=O)N1 (relative stereo) [Compound (A), [1S-[1R*,3R*(E),7R*,10S*,11R*,12R*,16S*]]-7,11-dihydroxy 8,8,10,12,16-pentamethyl-3-[1-methyl-2-(2-methyl-4-thiazolyl)ethenyl-4-aza-17-oxobicyclo[14.1.0]heptadecane-5,9-dione]
inhibition of CYP1A2 (CYP1A2): did not inhibit | rate of oxidative metabolism (rat liver microsomes): 0.7 nmol/min/mg protein | rate of oxidative metabolism (mouse liver microsomes): 2.1 nmol/min/mg protein | cytochrome P450 responsible for metabolism (CYP3A4): may be a substrate for CYP3A4 | rate of oxidative metabolism (human liver microsomes): 1.3 nmol/min/mg protein | dose-normalized mean AUC [1]: 257 ng·h/mL | rate of oxidative metabolism (dog liver microsomes): 1.2 nmol/min/mg protein | inhibition of CYP2C9 (CYP2C9): did not inhibit | can be stored for up to ([2]; ambient temperature): up to 6 hours | can be stored for up to ([2]; refrigerated temperature): up to 20 hours | total impurities/degradants and potency ([2]; ambient temperature (20° C. to 25° C.) and room light, 20 hours): increase in total impurities/degradants and a decrease in potency | total impurities/degradants ([2]; refrigerated temperature (2° C. to 8° C.), 20 hours): slight increase in total impurities/degradants | appearance of the liquid oral dosage form ([2]; up to 20 hours, either storage condition): No changes from initial | CLT (mean) ([3]; intraarterial 2 mg/kg): 56 mL/min/kg | VSS (mean) ([3]; intraarterial 2 mg/kg): 23 L/kg | mean T-HALF ([3]; intraarterial 2 mg/kg): 9.6 h | CLT as percent of liver blood flow ([3]; intraarterial 2 mg/kg, liver blood flow 56 mL/min/kg): 100% | Tmax ([3]; intraduodenal 8 mg/kg): 4.8 min | absolute oral bioavailability ([3]; intraduodenal 8 mg/kg): 27% | mean CMAX ([3]; intraduodenal 8 mg/kg): 642 ng/mL | Tmax ([3]; oral 8 mg/kg): 10.2 min | absolute oral bioavailability ([3]; oral 8 mg/kg): 7.5% | mean CMAX ([3]; oral 8 mg/kg): 228 ng/mL
